From patent publication US20260070902A1, “SULFONYL DERIVATIVES AS CCR6 INHIBITORS” (Hoffmann-La Roche Inc., priority 2022, published 2026)

Key:
Format in all cases: cell-based
human CCR6 [1] = biological target: T1, human CCR6 (Homo sapiens, UniProt P51684); assay: CHO-K1 CCR6 chemotaxis assay towards CCL20; settings: relative -Log IC50; CHO-K1 cells overexpressing human CCR6; migration towards 100 ng/ml CCL20; 4 h
T1 sequence (P51684 1-374): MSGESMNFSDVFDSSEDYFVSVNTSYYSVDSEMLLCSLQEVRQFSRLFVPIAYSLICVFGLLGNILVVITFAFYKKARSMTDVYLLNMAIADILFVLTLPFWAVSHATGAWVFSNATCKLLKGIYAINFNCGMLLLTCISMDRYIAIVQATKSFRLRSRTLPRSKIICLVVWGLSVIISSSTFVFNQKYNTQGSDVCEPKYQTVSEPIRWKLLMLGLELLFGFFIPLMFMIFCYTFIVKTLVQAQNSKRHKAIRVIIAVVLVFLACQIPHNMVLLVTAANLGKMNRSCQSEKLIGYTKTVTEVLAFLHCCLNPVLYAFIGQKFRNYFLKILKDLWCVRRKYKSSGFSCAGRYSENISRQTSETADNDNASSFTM
Method in brief: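 Human CCR6-overexpressing CHO-K1 cells (2*10^6 cells/ml) were preincubated 30 min at 37 °C with compound (0.2% DMSO), then allowed to migrate 4 h through 8 µm Transwell pores toward 100 ng/ml CCL20. Migrated cells were counted by CellTiter Glo. −Log IC50 came from four-parameter fits normalised to DMSO without/with CCL20.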

Human CD4+ T cells = assay: CD4+ T cells chemotaxis assay towards CCL20; settings: Homo sapiens, CD4+ T cell, 3 h, relative -Log IC50, human CD4+ T cells stimulated with anti-CD3 and anti-CD28, migration towards 150 ng/ml CCL20
Method in brief: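 Donor cells were stimulated overnight with anti-CD3/anti-CD28, then preincubated with compound for 30 min at 37° C (0.2% DMSO final). Migration through […]-pore Transwells toward 150 ng/ml CCL20 ran for 3 h at 37° C. Migrated cells were counted by CellTiter Glo, and relative −Log IC50 came from a four-parameter fit of % inhibition.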

human CCR6 [2] = biological target: T1, human CCR6; assay: Human CCR6-CRE reporter assay; design: The second construct contained the open reading frame of human CCR6 in the pUNO1 backbone; host or cells: 293FT cells; settings: relative -Log IC50; 293FT cells transfected with human CCR6 and CRE-luciferase reporter; 6 μM Forskolin, 6 nM CCL20; 5 h
Method in brief: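 293FT cells transiently co-transfected with human CCR6 and a CRE-luc2P reporter, used 48 h later. Compounds incubated with cells in medium containing 6 μM Forskolin and 6 nM CCL20 (assay-medium levels), 0.1% DMSO final, 5 h at 37° C; luminescence read, relative −Log IC50 from four-parameter fit.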

Row | Compound | IC50 (human CCR6 [1]) [nM] | IC50 (Human CD4+ T cells) [nM] | IC50 (human CCR6 [2]) [nM]
1 | N#Cc1c[nH]c2ccc(-c3ccc(S(=N)(=O)[C@H]4CC[C@H](Nc5ccc(S(F)(F)(F)(F)F)cc5)CC4)cc3)cc12 (stereo partly drawn) [Example 85, 5-(4-{[trans-4-{[4-(pentafluoro-λ^6-sulfanyl)phenyl]Amino}cyclohexyl]sulfonimidoyl}phenyl)-1H-indole-3-carbonitrile] | 126 | 25.1 | 100
2 | Cc1n[nH]c2ccc(-c3ccc(S(=N)(=O)[C@H]4CC[C@H](Nc5ccc(S(F)(F)(F)(F)F)cc5)CC4)cc3)cc12 (stereo partly drawn) [Example 86, [4-(3-methyl-1H-indazol-5-yl)phenyl][trans-4-{[4-(pentafluoro-λ^6-sulfanyl)phenyl]Amino}cyclohexyl](imino)-λ^6-sulfanone] | 79.4 | 79.4 | 126
3 | N=S(=O)(c1ccc(-c2ccc3nccn3c2)cc1)[C@H]1CC[C@H](Nc2ccc(S(F)(F)(F)(F)F)cc2)CC1 (stereo partly drawn) [Example 87, (4-{imidazo[1,2-a]pyridin-6-yl}phenyl)[trans-4-{[4-(pentafluoro-λ^6-sulfanyl)phenyl]Amino}cyclohexyl](imino)-λ^6-sulfanone] | 126 | 158 | 200
4 | Cc1cnc2ccc(-c3ccc(S(=N)(=O)[C@H]4CC[C@H](Nc5ccc(S(F)(F)(F)(F)F)cc5)CC4)cc3)cn12 (stereo partly drawn) [Example 89, (4-{3-methylimidazo[1,2-a]pyridin-6-yl}phenyl)[trans-4-{[4-(pentafluoro-λ^6-sulfanyl)phenyl]Amino}cyclohexyl](imino)-λ^6-sulfanone] | 79.4 | 39.8 | 158
5 | N#Cc1cnc2ccc(-c3ccc(S(=N)(=O)[C@H]4CC[C@H](Nc5ccc(S(F)(F)(F)(F)F)cc5)CC4)cc3)cn12 (stereo partly drawn) [Example 90, 6-(4-{[trans-4-{[4-(pentafluoro-λ^6-sulfanyl)phenyl]Amino}cyclohexyl]sulfonimidoyl}phenyl)imidazo[1,2-a]pyridine-3-carbonitrile] | 63.1 | 25.1 | 158
6 | CC(C)c1nnc2cnc(-c3ccc(S(=N)(=O)[C@H]4CC[C@H](Nc5ccc(S(F)(F)(F)(F)F)cc5)CC4)cc3)cn12 (stereo partly drawn) [Example 162, {4-[3-(propan-2-yl)-[1,2,4]triazolo[4,3-a]pyrazin-6-yl]phenyl}[trans-4-{[4-(pentafluoro-λ^6-sulfanyl)phenyl]amino}cyclohexyl](imino)-λ^6-sulfanone] | 63.1 | 79.4 | 100
7 | Cc1nnc2cnc(-c3ccc(S(=N)(=O)[C@H]4CC[C@H](Nc5ccc(S(F)(F)(F)(F)F)cc5)CC4)cc3)cn12 (stereo partly drawn) [Example 170, (4-{3-methyl-[1,2,4]triazolo[4,3-a]pyrazin-6-yl}phenyl) [trans-4-{[4-(pentafluoro-λ^6-sulfanyl)phenyl]amino}cyclohexyl](imino)-λ^6-sulfanone] | 2000 | 10000 | 501
8 | CC(C)c1nnc2ccc(-c3ccc(S(=O)(=O)N4CCC(Nc5ccc(S(F)(F)(F)(F)F)cn5)CC4)cc3)cn12 [Example 172, 5-(pentafluoro-λ^6-sulfanyl)-N-(1-{4-[3-(propan-2-yl)-[1,2,4]triazolo[4,3-a]pyridin-6-yl]benzenesulfonyl}piperidin-4-yl)pyridin-2-amine] | 7.94 | 1 | 20
9 | O=S(=O)(c1ccc(-c2ccc3nccn3c2)cc1)N1CCC(Nc2ccc(S(F)(F)(F)(F)F)cn2)CC1 [Example 173, N-[1-(4-{imidazo[1,2-a]pyridin-6-yl}benzenesulfonyl)piperidin-4-yl]-5-(pentafluoro-λ^6-sulfanyl)pyridin-2-amine] | 3.98 | 2.51 | 31.6
10 | Cc1nnc2ccc(-c3ccc(S(=O)(=O)N4CCC(Nc5ccc(S(F)(F)(F)(F)F)cn5)CC4)cc3)cn12 [Example 174, N-[1-(4-{3-methyl-[1,2,4]triazolo[4,3-a]pyridin-6-yl}benzenesulfonyl)piperidin-4-yl]-5-(pentafluoro-λ^6-sulfanyl)pyridin-2-amine] | 5.01 | 2.51 | 25.1
11 | NC(=O)c1cc(-c2ccc(S(=O)(=O)N3CCC(Nc4ccc(S(F)(F)(F)(F)F)cn4)CC3)cc2)ccn1 [Example 175, 4-{4-[(4-{[5-(pentafluoro-λ^6-sulfanyl)pyridin-2-yl]amino}piperidin-1-yl)sulfonyl]phenyl}pyridine-2-carboxamide] | 10 | 5.01 | 20
12 | O=S(=O)(c1ccc(-c2ccc3nnc(C(F)F)n3c2)cc1)[C@H]1CC[C@H](Nc2ccc(S(F)(F)(F)(F)F)cc2)CC1 [Example 176, 4-(pentafluoro-λ^6-sulfanyl)-N-[trans-4-{4-[3-(difluoromethyl)-[1,2,4]triazolo[4,3-a]pyridin-6-yl]benzenesulfonyl}cyclohexyl]aniline] | 10 | 1.58 | 126
13 | NC(=O)c1cc(-c2ccc(S(=O)(=O)N3CCC(Nc4ccc(S(F)(F)(F)(F)F)cc4)CC3)cc2)ccn1 [Example 177, 4-{4-[(4-{[4-(pentafluoro-λ^6-sulfanyl)phenyl]amino}piperidin-1-yl)sulfonyl]phenyl}pyridine-2-carboxamide] | 79.4 | 12.6 | 79.4
14 | CC(C)c1nnc2ccc(-c3ccc(S(=O)(=O)[C@H]4CC[C@H](Nc5ccc(S(F)(F)(F)(F)F)cn5)CC4)cc3)cn12 [Example 178, 5-(pentafluoro-λ^6-sulfanyl)-N-[trans-4-{4-[3-(propan-2-yl)-[1,2,4]triazolo[4,3-a]pyridin-6-yl]benzenesulfonyl}cyclohexyl]pyridin-2-amine] | 10 | 0.794 | 63.1
15 | Cc1nnc2ccc(-c3ccc(S(=O)(=O)[C@H]4CC[C@H](Nc5ccc(S(F)(F)(F)(F)F)cn5)CC4)cc3)cn12 [Example 179, 5-(pentafluoro-λ^6-sulfanyl)-N-[trans-4-(4-{3-methyl-[1,2,4]triazolo[4,3-a]pyridin-6-yl}benzenesulfonyl)cyclohexyl]pyridin-2-amine] | 10 | 6.31 | 79.4
16 | O=S(=O)(c1ccc(-c2ccc3nccn3c2)cc1)[C@H]1CC[C@H](Nc2ccc(S(F)(F)(F)(F)F)cn2)CC1 [Example 180, 5-(pentafluoro-λ^6-sulfanyl)-N-[trans-4-(4-{imidazo[1,2-a]pyridin-6-yl}benzenesulfonyl)cyclohexyl]pyridin-2-amine] | 25.1 | 7.94 | 100
